Laboratory results from patent US6342245B1, “Compositions of lipid lowering agents” (Janssen Pharmaceutica N.V., priority 1997, dated 2002).

Test system: apolipoprotein B
Test: Apolipoprotein B (apo B) inhibition test
Type: cell-based, human
Conditions: Hep G2-cells; concentration needed to reduce apoB secretion to 50% of the control
Method: Cultured human liver cells (Hep G2-cells ) which synthesize and secrete low-density lipoproteins, were incubated overnight at 37° C. in a liquid medium containing radioactively labelled leucine. Thus radioactively labelled leucine was incorporated into the apolipoprotein B. The liquid medium was decanted and the apolipoprotein B was isolated by means of a double immunoprecipitation, i.e. first an apolipoprotein B-specific antibody (antibody1) was added to the liquid medium and subsequently a second antibody (antibody2) was added which binds specifically to the apoB-antibody1-complex. The thus formed apoB-antibody1-antibody2 complex precipitated and was isolated by centrifuge. Quantification of the amount of apolipoprotein B synthesized during the night resulted from measuring the radioactivity of the isolated complex. […] For each experiment the inhibition of apolipoprotein-B formation was expressed as [formula]
When more experiments were carried out for the same concentration, the median value of the inhibition calculated for these experiments was calculated. […]

- IC50: 23 nM
Structure (SMILES): CCC(C)n1ncn(-c2ccc(N3CCN(c4ccc(OC[C@H]5CO[C@](CSc6nncn6C)(c6ccc(Cl)cc6)O5)cc4)CC3)cc2)c1=O (relative stereo) [Compound 40, cis-4-[4-[4-[4-[[2-(4-chlorophenyl)-2-[[(4-methyl-4H-1,2,4-triazol-3-yl)thio]methyl]-1,3-dioxolan-4-yl]methoxy]phenyl]-1-piperazinyl]phenyl]-2,4-dihydro-2-(1-methyl-propyl)-3H-1,2,4-triazol-3-one]
